In assay [1] the test system is Staphylococcus aureus. The experiment in a line: microbe, parasite or virus in culture.
For assay [2], the system named is Streptococcus pneumoniae. The experiment in a line: microbe, parasite or virus in culture. As to conditions: ATCC 49619.
Assay [3] has as its system Staphylococcus aureus. In words: microbe, parasite or virus in culture. This is another data set of the same source.
The next assay deals with Moraxella catarrhalis. In words: Antibacterial activity against Moraxella catarrhalis K1209 by broth microdilution method. It counts as functional. (Dilution methods test growth across graded concentrations, often in twofold steps.)
Assay [4] relates to Staphylococcus epidermidis. The experiment in a line: Antibacterial activity against Staphylococcus epidermidis ATCC 12228 by broth microdilution method. In kind it is functional.
In assay [5] the test system is Streptococcus pneumoniae. In words: Antibacterial activity against penicillin-resistant Streptococcus pneumoniae KT2524 in mouse dosed iv 1 hr after infection. In kind it is functional.
Assay [6] concerns Staphylococcus aureus. The experiment in a line: Antibacterial activity against methicillin-susceptible Staphylococcus aureus Smith in mouse dosed iv 1 hr after infection. It counts as functional.
Assay [7] relates to Streptococcus pneumoniae. The experiment in a line: Antibacterial activity against penicillin-susceptible Streptococcus pneumoniae ATCC 49619 in mouse dosed iv 1 hr after infection. As to conditions: ATCC 49619, iv. In kind it is functional.
The subject of assay [8] is Staphylococcus aureus. The experiment in a line: microbe, parasite or virus in culture. As to conditions: KMP9.
The test system of the next assay is Streptococcus pyogenes. The experiment in a line: Antibacterial activity against Streptococcus pyogenes ATCC 12344 by broth microdilution method. In kind it is functional.
Another assay relates to Haemophilus influenzae. In words: Antibacterial activity against Haemophilus influenzae TH13 by broth microdilution method. In kind it is functional.
Assay [9] deals with Staphylococcus aureus. The experiment in a line: Antibacterial activity against methicillin-resistant Staphylococcus aureus KT0116 in mouse dosed iv 1 hr after infection. It counts as functional.
In assay [10] the test system is Staphylococcus aureus. The experiment in a line: microbe, parasite or virus in culture. As to conditions: Smith.
Assay [11] concerns Enterococcus faecium. In words: microbe, parasite or virus in culture. As to conditions: ATCC 19434.
The test system of the next assay is Enterococcus faecalis. The experiment in a line: microbe, parasite or virus in culture. The conditions noted are these: ATCC 29212.
Assay [12] has as its system Enterococcus faecium. In words: Antibacterial activity against vancomycin-resistant Enterococcus faecium KU1778 clinical isolate by broth microdilution method. In kind it is functional.
Assay [13] deals with Streptococcus pneumoniae. In words: microbe, parasite or virus in culture.
In another assay the test system is Atopobium parvulum. In words: Antibacterial activity against Atopobium parvulum GAI 5542 by broth microdilution method. In kind it is functional. The conditions noted are these: Lancefieldella parvula.
A further assay concerns Cutibacterium acnes. The experiment in a line: Antibacterial activity against Propionibacterium acnes GAI 5568 by broth microdilution method. It counts as functional.
For assay [14], the system named is Peptoniphilus asaccharolyticus. In words: Antibacterial activity against Peptostreptococcus asaccharolyticus GAI 5534 by broth microdilution method. In kind it is functional.
The test system of assay [15] is Staphylococcus saccharolyticus. In words: Antibacterial activity against Staphylococcus saccharolyticus GAI 5520 by broth microdilution method. It counts as functional.
The test system of assay [16] is Mycoplasmoides pneumoniae. In words: Antibacterial activity against Mycoplasma pneumoniae FH Liu by broth microdilution method. In kind it is functional.
For another assay, the system named is Clostridium perfringens. In words: Antibacterial activity against Clostridium perfringens GAI 5526 by broth microdilution method. In kind it is functional.
Assay [17] relates to Peptostreptococcus anaerobius. In words: Antibacterial activity against Peptostreptococcus anaerobius GAI 5506 by broth microdilution method. It counts as functional.
A further assay relates to Finegoldia magna. In words: Antibacterial activity against Peptostreptococcus magnus GAI 5528 by broth microdilution method. It counts as functional.
The subject of assay [18] is Propionibacterium granulosum. In words: Antibacterial activity against Propionibacterium granulosum GAI 7414 by broth microdilution method. In kind it is functional. The conditions noted are these: Cutibacterium granulosum.
Assay [19] deals with Mycoplasmoides pneumoniae. The experiment in a line: Antibacterial activity against Mycoplasma pneumoniae Mac by broth microdilution method. It counts as functional.
In assay [20] the test system is Streptococcus intermedius. In words: Antibacterial activity against Streptococcus intermedius GAI 7416 by broth microdilution method. In kind it is functional.
The subject of assay [21] is Streptococcus pneumoniae. The experiment in a line: Antibacterial activity against penicillin-susceptible Streptococcus pneumoniae ATCC 6303 in mouse pulmonary infection model assessed as survival at 6.25 mg/kg, ip twice daily for 3 days. The conditions noted are these: route intraperitoneal. It counts as functional.

≈ marks a conversion by molar mass, not a printed value. Where only a bound is given, the exact number is not on record here.

Take `CC[C@H]1OC(=O)[C@H](C)[C@@H](O[C@H]2C[C@@](C)(OC)[C@@H](O)[C@H](C)O2)[C@H](C)[C@@H](O[C@@H]2O[C@H](C)C[C@H](N(C)C)[C@H]2O)[C@](C)(O)C[C@@H](C)C(=O)[C@H](C)[C@@H](O)[C@]1(C)O` [ERYTHROMYCIN]: the MIC in the assay with Staphylococcus aureus [1] is 0.063 µg/mL (≈ 0.0858 µM); against Streptococcus pneumoniae [2], 0.016 µg/mL (≈ 0.0218 µM); with Staphylococcus aureus [3], above 128 µg/mL; against Moraxella catarrhalis, 0.032 µg/mL (≈ 0.0436 µM); in assay [4], 0.063 µg/mL (≈ 0.0858 µM); against Staphylococcus aureus [8] it was 32 µg/mL (≈ 43.6 µM). The MIC against Streptococcus pyogenes was 0.008 µg/mL (≈ 0.0109 µM); against Haemophilus influenzae it was 2 µg/mL (≈ 2.73 µM); against Staphylococcus aureus [10], 0.125 µg/mL (≈ 0.17 µM); against Enterococcus faecium [11], 1 µg/mL (≈ 1.36 µM); in the assay with Enterococcus faecalis, 2 µg/mL (≈ 2.73 µM); in the assay with Enterococcus faecium [12] it was above 128 µg/mL. This molecule also gave an MIC in the assay on Streptococcus pneumoniae [13] above 128 µg/mL. The ED50 with Streptococcus pneumoniae [5] is above 100 mg/kg; in the assay on Staphylococcus aureus [6] it was 2.55 mg/kg; in the assay on Streptococcus pneumoniae [7], 1.48 mg/kg; in the assay with Staphylococcus aureus [9] it was above 100 mg/kg.

In the case of `C[C@H]1COc2c(N3CCN(C)CC3)c(F)cc3c(=O)c(C(=O)O)cn1c23.C[C@H]1COc2c(N3CCN(C)CC3)c(F)cc3c(=O)c(C(=O)O)cn1c23.O` [LEVOFLOXACIN], the MIC in the assay with Staphylococcus aureus [1] was 0.125 µg/mL; with Atopobium parvulum, 0.25 µg/mL; against Staphylococcus aureus [3], above 128 µg/mL; with Moraxella catarrhalis, 0.063 µg/mL; in the assay on Cutibacterium acnes, 0.25 µg/mL; in [14], 2 µg/mL. Also, the MIC in assay [15] was 0.125 µg/mL; in assay [4], 0.25 µg/mL; in assay [16], 0.125 µg/mL; in the assay with Clostridium perfringens it was 0.25 µg/mL; in the assay on Staphylococcus aureus [8], above 128 µg/mL; against Streptococcus pyogenes, 0.5 µg/mL. The MIC against Haemophilus influenzae was 0.032 µg/mL; in assay [17], 0.125 µg/mL; in the assay on Finegoldia magna, 0.125 µg/mL; in the assay on Staphylococcus aureus [10] it was 0.125 µg/mL; against Enterococcus faecium [11] it was 4 µg/mL; in assay [18] it was 0.25 µg/mL. In addition, the MIC with Enterococcus faecalis worked out at 0.5 µg/mL; in assay [19], 0.063 µg/mL; in assay [20], 0.5 µg/mL; in the assay on Enterococcus faecium [12], 64 µg/mL. In addition, the median effective dose (ED50) with Streptococcus pneumoniae [5] is above 100 mg/kg; in the assay with Staphylococcus aureus [6], 0.78 mg/kg; with Streptococcus pneumoniae [7], 24.7 mg/kg; with Staphylococcus aureus [9] it was above 100 mg/kg.

Regarding `CN(C)c1ccc(O)c2c1C[C@H]1C[C@H]3[C@H](N(C)C)C(O)=C(C(N)=O)C(=O)[C@@]3(O)C(O)=C1C2=O` [MINOCYCLINE], the MIC stood at 0.063 µg/mL (≈ 0.138 µM) in the assay with Staphylococcus aureus [1]; 0.032 µg/mL (≈ 0.0699 µM) against Streptococcus pneumoniae [2]; 0.25 µg/mL (≈ 0.546 µM) in the assay with Atopobium parvulum; 16 µg/mL (≈ 35 µM) in the assay on Staphylococcus aureus [3]; 0.25 µg/mL (≈ 0.546 µM) against Moraxella catarrhalis; 0.125 µg/mL (≈ 0.273 µM) with Cutibacterium acnes. Moreover, the MIC in assay [14] came to 16 µg/mL (≈ 35 µM); in assay [15] it was 0.125 µg/mL (≈ 0.273 µM); in assay [4] it was 0.125 µg/mL (≈ 0.273 µM); in assay [16] it was 0.25 µg/mL (≈ 0.546 µM); in the assay with Clostridium perfringens, 0.063 µg/mL (≈ 0.138 µM); in the assay on Staphylococcus aureus [8] it was 4 µg/mL (≈ 8.74 µM). For the same molecule, the MIC in the assay on Streptococcus pyogenes stood at 0.063 µg/mL (≈ 0.138 µM); with Haemophilus influenzae it was 0.5 µg/mL (≈ 1.09 µM); in [17], 0.032 µg/mL (≈ 0.0699 µM); in the assay with Finegoldia magna it was 0.125 µg/mL (≈ 0.273 µM); against Staphylococcus aureus [10], 0.063 µg/mL (≈ 0.138 µM); against Enterococcus faecium [11], 0.063 µg/mL (≈ 0.138 µM). The MIC in assay [18] turned out to be 0.25 µg/mL (≈ 0.546 µM); in [19], 0.25 µg/mL (≈ 0.546 µM); in assay [20], 0.25 µg/mL (≈ 0.546 µM); in the assay on Enterococcus faecium [12] it was 0.063 µg/mL (≈ 0.138 µM); against Streptococcus pneumoniae [13], 8 µg/mL (≈ 17.5 µM). The ED50 in the assay with Streptococcus pneumoniae [5] was found to be 50 mg/kg; with Staphylococcus aureus [6], 0.515 mg/kg; in the assay with Streptococcus pneumoniae [7], 0.968 mg/kg; in the assay on Staphylococcus aureus [9], 50 mg/kg.

`CN[C@H](CC(C)C)C(=O)N[C@H]1C(=O)N[C@@H](CC(N)=O)C(=O)N[C@H]2C(=O)N[C@H]3C(=O)N[C@H](C(=O)N[C@H](C(=O)O)c4cc(O)cc(O)c4-c4cc3ccc4O)[C@H](O)c3ccc(c(Cl)c3)Oc3cc2cc(c3O[C@@H]2O[C@H](CO)[C@@H](O)[C@H](O)[C@H]2O[C@H]2C[C@](C)(N)[C@H](O)[C@H](C)O2)Oc2ccc(cc2Cl)[C@H]1O` [VANCOMYCIN]: the Activity in the assay on Streptococcus pneumoniae [21] was 50%. Besides, the MIC was determined as 0.25 µg/mL (≈ 0.173 µM) against Streptococcus pneumoniae [2]; 2 µg/mL (≈ 1.38 µM) against Atopobium parvulum; 64 µg/mL (≈ 44.2 µM) in the assay on Moraxella catarrhalis; 0.5 µg/mL (≈ 0.345 µM) against Cutibacterium acnes; 0.125 µg/mL (≈ 0.0863 µM) in assay [14]; 2 µg/mL (≈ 1.38 µM) in [15]. The MIC is above 128 µg/mL in [16]; 0.5 µg/mL (≈ 0.345 µM) in the assay with Clostridium perfringens; above 128 µg/mL in the assay with Haemophilus influenzae; 0.25 µg/mL (≈ 0.173 µM) in assay [17]; 0.25 µg/mL (≈ 0.173 µM) against Finegoldia magna; 0.5 µg/mL (≈ 0.345 µM) in assay [18]. For the same molecule, the MIC in assay [19] was above 128 µg/mL; in assay [20], 1 µg/mL (≈ 0.69 µM); with Enterococcus faecium [12], above 128 µg/mL; with Streptococcus pneumoniae [13], 0.5 µg/mL (≈ 0.345 µM). Besides, the ED50 with Streptococcus pneumoniae [5] was found to be 2.37 mg/kg; with Staphylococcus aureus [6] it was 0.88 mg/kg; in the assay with Streptococcus pneumoniae [7], 1.06 mg/kg; in the assay with Staphylococcus aureus [9], 1.01 mg/kg.

For orientation: ED50 means the midpoint of the dose-response relation. A high value points to a need for a large dose.

Values taken from ChEMBL document CHEMBL1142399, “Water-soluble pleuromutilin derivative with excellent in vitro and in vivo antibacterial activity against gram-positive pathogens” (J Med Chem, 2008).
